According to EP0061162A2, “Cephalosporin derivatives, pharmaceutical compositions containing the same and production thereof” (KYOTO YAKUHIN KOGYO KABUSHIKI KAISHA, priority 1981, dated 1982):

Experiment: Acute oral toxicity test in mice
Settings: mouse, in vivo, suspension in 1% methylcellulose solution, male mice (ICR, 5-week-old), doses 0.5 g to 5.0 g/kg
Experimental: The acut oral toxicity data for cephalosporin derivatives (I) and acid addition salt of the present invention in mice are shown below.
Animals: Male mice (ICR, 5-week-old), n=3
Method of administration: The cephalosporin derivatives as prepared in the above synthesis examples were administered in the form of suspension in 1% methylcellulose solution to mice orally at doses of 0.5 g to 5.0 g/kg.

CCOC(=O)OC(C)OC(=O)C1=CCS[C@@H]2[C@H](NC(=O)/C(=N\OC)c3csc(N)n3)C(=O)N12 (single isomer, unassigned) [Compound 1, l-(ethoxycarbonyloxy)ethyl 7-[2-(2-aminothiazol-4-yl)-2-methoxyiminoacetamido]-3-cephem-4-carboxylate (syn isomer)]
LD50: > 5000 mg/kg
